# Measured values published in EP0923548B1, “4-A[…] AS DOPAMIN D2 AGONISTS AND AS 5HT 1A LIGANDS” (Wyeth, priority 1996, dated 1998).
# Molecular target: T1, dopamine autoreceptor (Rattus norvegicus, UniProt P61169)
# T1 construct: homogenized rat striatal brain tissue; from tissue; host or cells: rat striatal brain tissue homogenate
# Experiment: Dopamine autoreceptor affinity, 3H-quinpirole binding in homogenized rat striatal brain tissue
# Conditions: for Ratio ant/agonist: ratio of D2 Spiper IC50 to D2 Quin. IC50 (LowAg/HighAg, predicts intrinsic activity)
# Description: Affinity for the dopamine autoreceptor was established by a modification of the standard experimental test procedure of Seemen and Schaus, European Journal of Pharmacology 203, 105-109 (1991), wherein homogenized rat striatal brain tissue is incubated with ^3H-quinpirole (Quin.)and various concentrations of test compound, filtered and washed and counted in a Betaplate scintillation counter.
# T1 sequence (P61169 whole entry): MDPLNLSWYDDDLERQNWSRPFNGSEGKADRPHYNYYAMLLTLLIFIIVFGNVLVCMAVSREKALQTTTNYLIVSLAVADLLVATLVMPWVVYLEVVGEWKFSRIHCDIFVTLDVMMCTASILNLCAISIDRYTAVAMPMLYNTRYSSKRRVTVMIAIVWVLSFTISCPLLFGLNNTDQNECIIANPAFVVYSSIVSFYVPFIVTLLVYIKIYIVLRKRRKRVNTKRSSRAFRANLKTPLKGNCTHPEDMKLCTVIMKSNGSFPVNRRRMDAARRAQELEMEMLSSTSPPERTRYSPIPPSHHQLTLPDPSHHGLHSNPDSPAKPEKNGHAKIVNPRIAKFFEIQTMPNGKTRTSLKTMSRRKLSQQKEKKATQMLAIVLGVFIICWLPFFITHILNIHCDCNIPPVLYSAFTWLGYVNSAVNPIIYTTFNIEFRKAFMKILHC
Structure (SMILES),IC50,Ratio ant/agonist
"c1ccc(CCCCNCCOc2cccc3[nH]ccc23)cc1 [(1a), [2-(1H-Indol-4-yloxy)-ethyl]-(4-phenyl-butyl)-amine]",0.0105 µM,18
"Clc1ccc(OCCNCc2ccccc2)c2cc[nH]c12 [(1b), Benzyl-[2-(7-chloro-1H-indol-4-yloxy)-ethyl]-amine]",0.0149 µM,12
"Clc1ccc(OCCNCc2ccccc2)c2c(Cl)c[nH]c12 [(1c), Benzyl-[2-(3,7-dichloro-1H-indol-4-yloxy)-ethyl]-amine]",0.0136 µM,21
"Clc1ccc(OCCNCc2cccs2)c2c(Cl)c[nH]c12 [(1f), Thien-2-ylmethyl-[2-(3,7-dichloro-1H-indol-4-yloxy)-ethyl]-amine]",0.0225 µM,18
"Clc1c[nH]c2cccc(OCCNCCCCc3ccccc3)c12 [(2a), [2-(3-Chloro-1H-indol-4-yloxy)-ethyl]-(4-phenyl-butyl)-amine]",0.00955 µM,20
"O=C(c1c[nH]c2cccc(OCCNCc3ccccc3)c12)C(F)(F)F [(3a), 1-[4-(2-Benzylamino-ethoxy)-1H-indol-3-yl]-2,2,2-trifluoro-ethanone]",0.00593 µM,48
"c1ccc(CNCCOc2cccc3[nH]ccc23)cc1 [(3b), N-Benzyl-[2-(1H-indol-4-yloxy)]-ethylamine]",0.0194 µM,26
